Experimental data from patent publication US20240327387A1, “TRIAZINE DERIVATIVES FOR THE TREATMENT OF TUMOURS AND NEURODEGENERATIVE DISORDERS” (UNIVERSITA' DEGLI STUDI DI MILANO, priority 2021, published 2024).

Columns and labels:
[1] = biological target: T1, PD-L1 (Homo sapiens (Human), UniProt Q9NZQ7); assay: Differential scanning calorimetry (DSC) of PD-L1; format: binding; settings: PD-L1 32 μM, ligand 32 μM
Target sequence in this assay (Q9NZQ7 18-134): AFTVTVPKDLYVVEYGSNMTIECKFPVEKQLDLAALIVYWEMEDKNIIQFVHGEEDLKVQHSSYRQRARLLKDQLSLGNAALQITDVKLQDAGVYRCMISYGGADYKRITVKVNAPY

[2] = biological target: T1, PD-L1; assay: NMR binding assay (macromolecule-based 1D 1H NMR); settings: PD-L1 10 μM, protein:ligand 1:1 and 1:10
Target sequence in this assay (Q9NZQ7 18-134): as above

[3] = biological target: hPD1/hPD-L1 interaction (Homo sapiens (Human), UniProt Q9NZQ7); assay: HTRF assay of PD-1/PD-L1 interaction; format: binding
Chain of hPD1/hPD-L1 interaction (Q9NZQ7 19-238): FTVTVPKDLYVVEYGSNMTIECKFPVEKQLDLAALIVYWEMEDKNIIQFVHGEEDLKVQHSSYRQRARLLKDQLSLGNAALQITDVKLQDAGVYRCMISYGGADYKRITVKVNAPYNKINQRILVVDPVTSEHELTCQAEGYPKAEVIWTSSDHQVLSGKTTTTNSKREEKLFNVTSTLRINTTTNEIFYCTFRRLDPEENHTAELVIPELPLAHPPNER

[4] = biological target: T1, PD-L1; settings: PD-L1 versus PD-1
Target sequence in this assay (Q9NZQ7 19-290): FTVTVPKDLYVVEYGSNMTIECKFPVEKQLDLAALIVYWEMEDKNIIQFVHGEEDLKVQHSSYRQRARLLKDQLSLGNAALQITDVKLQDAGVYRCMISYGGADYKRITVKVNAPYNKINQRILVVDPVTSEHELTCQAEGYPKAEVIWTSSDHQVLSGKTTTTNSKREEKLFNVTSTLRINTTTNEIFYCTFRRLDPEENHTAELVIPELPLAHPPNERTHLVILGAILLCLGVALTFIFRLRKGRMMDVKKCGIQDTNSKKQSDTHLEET

Row | IC50 ([3]; Table 2) | Compound | also measured
1 | > 10 µM | Cc1c(CNc2ncnc(NCCNS(C)(=O)=O)n2)cccc1-c1ccccc1 [Compound 81] | 
2 | > 10 µM | COC(=O)[C@H](CO)Nc1ncnc(NCc2cccc(-c3ccccc3)c2C)n1 [Compound 82] | 
3 | > 10 µM | Cc1c(CNc2ncnc(N[C@@H](CO)C(=O)O)n2)cccc1-c1ccccc1 [Compound 83] | 
4 | > 10 µM | CC(=O)NCCNc1ncnc(NCc2cccc(-c3ccc4c(c3)OCCO4)c2C)n1 [Compound 84] | 
5 | > 10 µM | Cc1c(CNc2ncnc(NCCNS(C)(=O)=O)n2)cccc1-c1ccc2c(c1)OCCO2 [Compound 85] | 

The remaining lines, values behind:

Row | Compound | IC50 ([3]; Table 2) | also measured
6 | COc1nc(OCc2cccc(-c3ccccc3)c2C)ccc1CNCCNC(C)=O [BMS202] |  | change in the Tm of the protein (ΔTm) [1]: 6.5 °C; Tm of PD-L1 in the presence of ligand ([1]; no ligand Tm 46.5 (±0.5)): 53.0 (±0.5) ° C.; formation of the ligand-PD-L1 complex (1D 1H NMR signal changes) [2]: decrease in the intensity of the free protein signals
7 | CC(=O)NCCNc1ncnc(OCc2cccc(-c3ccccc3)c2C)n1 [Compound 4] |  | IC50 ([3]; HTRF): 0.115 µM; IC50 ([3]; HTRF, Table 1): 0.115 ± 0.024 µM; specific binding [4]: capable of specifically binding PD-L1 and not PD-1; formation of the ligand-PD-L1 complex (1D 1H NMR signal changes) [2]: formation of the compound 4-PD-L1 complex
8 | COC(=O)[C@H](CO)Nc1ncnc(OCc2cccc(-c3ccccc3)c2C)n1 [Compound 76] | 0.692 µM | 
9 | Cc1c(COc2ncnc(N[C@@H](CO)C(=O)O)n2)cccc1-c1ccccc1 [Compound 77] | > 10 µM | 
10 | CC(=O)NCCNc1ncnc(NCc2cccc(-c3ccccc3)c2C)n1 [Compound 80] | > 10 µM | 
